Data: patent publication US10301630B2, “Methods and compositions for unsilencing imprinted genes” (The University of North Carolina at Chapel Hill, priority 2010, dated 2019)
Where “and” joins values, the source holds several entries; their conditions need not be identical. Equal entries are not always repeated.

How the values were obtained:
[1] = tested on: paternal Ube3a-YFP allele in spinal neurons; assay: Intrathecal delivery, paternal Ube3a-YFP in spinal cord; type: in vivo, mouse; details: for unsilencing of paternal Ube3a-YFP after intrathecal injection: i.t. 5 μl, irinotecan 1000 nmol/day for 5 days, topotecan 200 nmol/day for 6 days
Experimental: A soft cloth is placed over the head and upper body of the animal to keep him calm. The experimenter grasps the pelvic girdle of mouse with his thumb and forefinger. Next, the experimenter traces the spinal column of the mouse with a needle. The disposable 30 gauge ½ inch needle is connected to a 50 ul Luer-hub Hamilton syringe. As long as the experimenter senses the bones of the spinal column, the angle of syringe is lowered at 45 degree to the horizontal. The experimenter inserts the needle 1 mm further to the spinal column. Following the 5 ul injection, the syringe is rotated slightly and removed. […] They are 100, 500 and 1000 nmole. Paternal Ube3a-YFP (+/Ey) mice are used throughout these experiments.
For immunocytochemistry in spinal cord, lumbosacral spinal cord (approximately L1 to S2 and inclusive of the area corresponding to intrathecal injection site) was removed from each mouse and immersion-fixed for 8 h in cold 4% paraformaldehyde/0.1M phosphate buffer (pH 7.4). After a period of cryoprotection in 30% sucrose in 0.1M phosphate buffer, each spinal cord was sectioned on a cryostat at 40 μm. Sections to be stained immediately were collected in PBS; sections to be saved for future study were placed in a PBS/ethylene glycol/glycerol solution and stored at −20° C. Every fourth section was incubated overnight in a mixture containing a chicken IgY to GFP (1:750; Ayes Labs, GFP-1020) and a mouse IgG1 to NeuN (1:250; Millipore, MAB377) and treated the following day with a cocktail containing goat anti-chicken IgY-Alexa 488 (1:200; Invitrogen, A-11039), goat anti-mouse IgG1-Alexa 568 (1:200; Invitrogen, A-21124), and DRAQ5 (1:10,000; Axxora, BOS-889-001). Immunostained sections were mounted from PBS onto SuperFrostPlus Slides (Fisher), which were then air-dried briefly, rehydrated with PBS, and coverslipped with FluoroGel (Electron Microscopy Sciences). For quantification studies, sections were imaged using a Nikon Eclipse 80i with Surveyor mosaic imaging software. For qualitative assessment, sections were imaged as maximal projections on a Zeiss LSM 510.
For cell counting in spinal cord, 14 to 18 sections per mouse in segments corresponding to the injection site were analyzed. Slices were imaged using a Nikon Eclipse 80i microscope equipped with a QimagingRetigaExi high-speed CCD camera system and Surveyor mosaic imaging software using a 10× objective. For qualitative purposes, selected sections were also imaged on a Zeiss LSM 510 confocal microscope. Cells were counted manually by individuals blind to the experimental groups from raw (unprocessed) images using ImageJ and Cellprofiler^35 software.
YFP intensity levels from confocal XYZ image stacks were measured using a semi-automated macro with ImageJ. Individual YFP-positive cells were selected by eye, the criteria being the Z plane having the largest area for each cell. Cell regions were defined by intensity thresholding or manual tracing and the average YFP intensity and percent saturation were calculated for each cell.
Following the injection, the syringe is rotated slightly and removed.

[2] = tested on: paternal Ube3a allele in brain; assay: Intracerebroventricular delivery, paternal Ube3a in brain; type: in vivo, mouse
Experimental: In order to unsilence paternal Ube3a in vivo with an emphasis on brain, I.C.V. with osmotic minipump was performed. […] Paternal Ube3a-YFP mice were anesthetized with Ketamine/Xylazine (120 mg/kg; 9 mg/kg) and positioned in a stereotaxic head frame. The scalp is shaved and cut, and the skull exposed. The local anesthetic (Bupivacaine, 2.5 mg/ml) is applied on the top of skull and mineral oil is applied on the eyes of the mice. Acetone is applied on the skull to remove any lipid tissues on the skull as well as to dry the skull surface for optimal adhesion. Next, a cannula (Brain Infusion Kit 1, DURECT Corporation) is positioned into a lateral ventricle at the following coordinates (−0.3 mm A/P, +/−1.0 mm M/L, −3.0 mm D/V). The free end of the cannula is connected to an Alzet osmotic minipump via a 2.5-cm-long piece of polyethylene (PE) tubing (cat. no. 0007750, DURECT Corporation). […] The filled pumps are incubated in sterile saline at 37° C. for at least 4 to 6 hours for priming before being implanted under the dorsal skin of the mouse's back. A needle driver is used to create a subcutaneous pocket in the scapula region to accommodate filled pumps. The cannula base and the attached piece of PE tubing are fixed to the skull with loctite cyanoacrylic. The incision site is closed with prolene suture. During and after surgery, mice are placed on a heating pad. Body weight of mice is recorded daily to assess mouse health. Seven days following minipump implantation, mice are sacrificed following pentobarbital overdose (150 mg/kg, I.P.) and brains are removed for immunofluorescence staining or Western blot analysis.
For immunocytochemistry in brain tissues, mice were perfused with 4% PFA in 0.1M PBS, postfixed overnight, and cryoprotected with 20% sucrose in 0.1M phosphate buffer (PB), pH=7.4 for two days. 60 μm sections were collected and permeabilized with 0.3% Triton X-100 in 0.1M PB for 30 min, and blocked by 5% goat serum for 1 hr. Sections were incubated with rabbit polyclonal antibody to GFP (1:1000, Novus Biologicals, NB600-308) at 4° C. overnight and then incubated with Alexa Fluor 488 goat antibody to rabbit IgG and DAPI for 2 hr at room temperature. Images were acquired using a Zeiss LSM 510 and 710 confocal microscopes.
For optical intensity measurement in selected brain regions, sections were imaged using a Zeiss LSM 510 confocal microscope. With custom macros created using ImageJ software^34, optical intensity of UBE3A-YFP was measured in different regions of hippocampus and striatum from vehicle- and topotecan-treated mice. Image intensity levels were normalized to background intensities from appropriate regions in vehicle-treated mice. Brain sections between Bregma −1.22 mm and −2.06 mm were chosen for analysis (n=5 sections/mouse for hippocampus and n=3 to 5 sections/mouse for striatum).
Mice with paternal Ube3a-YFP (Ube3a^m+/pYFP) were anesthetized with ketamine/xylazine (120 mg/kg; 9 mg/kg) and positioned in a stereotaxic apparatus. The scalp was shaved and cut, and the skull exposed. The local anesthetic (bupivacaine, 2.5 mg/ml) was applied to the skull, and mineral oil was applied to protect the eyes of the mice. Acetone was applied on the skull to remove any lipid tissues on the skull as well as to dry the skull surface for optimal adhesion. Next, a cannula (Brain Infusion Kit 1, DURECT Corporation) was positioned into a lateral ventricle at the following coordinates (−0.3 mm A/P, +1.0 mm M/L, −2.5 mm DN), as described^40. The free end of the cannula was connected to a mini-osmotic pump (Alzet, Model 2001 or 2002) via a 2.5 cm piece of polyethylene (PE) tubing (DURECT Corporation). […] The filled pumps were incubated in sterile saline at 37° C. for at least 4 hr before being implanted under the dorsal skin of the mouse's back. The cannula base and the attached piece of PE tubing were fixed to the skull with Loctite cyanoacrylic 454. The incision site was closed with prolene suture. […]

Row | Structure (SMILES) | unsilencing of paternal Ube3a-YFP after intrathecal injection [1] | Ube3a levels in Angelman syndrome model mice ([2]; i.c.v.) | number of paternal UBE3A-YFP-positive cells in lumbar spinal cord ([1]; 50 nmol/5 μL i.t. once daily, 10 of 14 days) | expression level of unsilenced paternal UBE3A-YFP versus maternal controls ([1]; i.t. 50 nmol/day for 10 of 14 days) | percentage of UBE3A-YFP+ cells that were NeuN+ ([1]; i.t. 50 nmol/day for 10 of 14 days, paternal Ube3a-YFP mice) | time unsilencing of Ube3a-YFP was maintained after cessation of treatment ([1]; i.t. 50 nmol/day for 10 of 14 days, spinal neurons) | persistence of unsilencing 14 days after cessation ([1]; i.t. 100 nmol/day on 10 of 14 days, 14 days washout) | effectiveness at unsilencing in spinal cord compared with irinotecan ([1]; i.t., FIG. 8 Panels B and C) | mice with robust unsilencing in cerebral cortex near the infused ventricle ([2]; i.c.v. 3.74 μg/h for two weeks) | unsilencing of paternal Ube3a, cerebellum ([2]; i.c.v. 3.74 μg/h for two weeks) | unsilencing of paternal Ube3a, contralateral (non-infused) hemisphere ([2]; i.c.v. 3.74 μg/h for two weeks) | unsilencing of paternal Ube3a, infused hemisphere ([2]; i.c.v. 3.74 μg/h for two weeks, mini-osmotic pump) | unsilencing of paternal Ube3a, cerebellar Purkinje neurons ([2]; i.c.v. 21.6 μg/h for five days) | paternal Ube3a-YFP protein in brain after ICV infusion (Example 3) ([2]; i.c.v. osmotic minipump, one week)
1 | CCc1c2c(nc3ccc(OC(=O)N4CCC(N5CCCCC5)CC4)cc13)-c1cc3c(c(=O)n1C2)COC(=O)[C@]3(O)CC [Irinotecan] | unsilenced the paternal Ube3a-YFP allele in spinal neurons and in DRG neurons | significantly increased Ube3a levels |  |  |  |  |  |  |  |  |  |  |  | 
2 | CC[C@@]1(O)C(=O)OCc2c1cc1n(c2=O)Cc2cc3c(CN(C)C)c(O)ccc3nc2-1 [Topotecan] | unsilenced the paternal Ube3a-YFP allele in spinal neurons and in DRG neurons |  | significantly increased the number of paternal UBE3A-YFP-positive cells | expressed at levels comparable to maternal UBE3A-YFP controls | > 93% and 93.25% | at least 12 weeks | unsilencing of paternal Ube3a persists | even more effective at unsilencing paternal Ube3a in spinal cord | two of five mice | no effect in the cerebellum | only a modest effect | unsilenced paternal Ube3a in the hippocampus, striatum, and cerebral cortex of the infused hemisphere | did unsilence the paternal allele of Ube3a in Purkinje neurons of the cerebellum | increased paternal Ube3a-YFP protein levels throughout the brain
